Where two headings read alike, the source gives them in different places.
Experiments:
[1] = test system: C57BL/KsJ db/db mouse; details: in vivo
From the text: (§1) Plasma levels of glucose, insulin, triglycerides, cholesterol, free fatty acids and urea were checked for a well-matched distribution of mice in the treatment groups.
(§2) At the start of treatment the body weights of the mice were checked and arrangements were made for monitoring water and feed consumption.
(§3) In the course of the experiment, serum glucose levels, oral glucose tolerance test (OGTT) findings, a number of lipid status parameters and weight gain were monitored.

[2] = test system: C57BL/KsJ db/db mouse; assay: Antidiabetic and serum-lipid-lowering activity in the db/db mouse (Experiments I and II); details: for Glucose: blood; for Glucose / Final b.w. / Initial b.w. / AUC glucose at OGTT / Glucose (plasma) / Fructosamine (plasma) / HDL-choles. (plasma) / Triglycerides (plasma): mean ± S.E.; for Final b.w. / Initial b.w.: postabsorption condition; for Initial b.w. / Variation % (initial b.w.) vs control: initial body weight; for Variation % (AUC glucose at OGTT) vs control / AUC glucose at OGTT: OGTT glucose 3 g/kg; for Glucose (plasma): postabsorption (fasting 9 a.m. to 4.30 p.m.); for Glucose (plasma) / Variation % (fructosamine) vs control / Variation % (plasma glucose) vs control / Fructosamine (plasma) / HDL-choles. (plasma) / Triglycerides (plasma): 7.5 hours after last treatment
From the text: as §1, §2, §3

[3] = biological target: T1, mPPARαLBD/Gal4DBD (Mus musculus, UniProt P23204); assay: Transactivation assay mediated by mPPARαLBD/Gal4DBD in COS-7 cells (CAT reporter); format: cell-based
T1 construct: expressed in transfected cells; host or cells: COS-7 (monkey kidney fibroblasts)
T1 sequence (P23204 239-466 limits assumed): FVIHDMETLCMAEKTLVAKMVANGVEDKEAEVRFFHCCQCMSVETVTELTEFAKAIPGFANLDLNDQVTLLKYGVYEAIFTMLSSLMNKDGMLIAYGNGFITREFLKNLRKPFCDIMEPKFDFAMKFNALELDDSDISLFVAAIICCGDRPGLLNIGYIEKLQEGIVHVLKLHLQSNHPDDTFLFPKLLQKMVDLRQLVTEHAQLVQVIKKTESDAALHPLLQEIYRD
From the text: In this model a transactivation assay is used in which the expression vector mPPARαLBD/Gal4 DBD allows the synthesis by the transfected cell of a chimeric protein, in which the ligand binding domain (LBD) of PPARα is fused with the DNA binding domain (DBD) of the transcription factor GAL4 of yeast [Luckow B. et al., Nucleic Acids Res. 15, 5490 (1987)]. Simultaneously, a plasmid (pG5CAT) is transfected which contains 5 copies of the high-affinity binding site for GAL4 (also called UAS, upstream activating sequence), upstream of the viral promoter E1b fused with the CAT reporter gene [Moya-Camarena S. Y. et al., J. Lipid Res. 40 (8), 1426-33 (1999)]. This model eliminates interference by possible endogenous receptors.
This is due to the fact that the activation of E1b and the production of CAT will occur exclusively thanks to the interaction of GAL4 DBD with its own response element (UAS). Since the transcription factor GAL4 is not expressed in […] cells, transactivation of the reporter gene can take place only when, as a result of the interaction of a ligand with the LBD of PPARα, the chimeric protein PPARα/GAL4 recognises the UAS sequence on the plasmid pG5CAT. Together with the expression vector and the reporter vector the cells were also transfected with the plasmid pCH110 which provides the internal control for the efficiency of transfection and the normalisation of the results.
A monkey kidney fibroblast cell line (COS-7) was used [Elbrecht A. et al., J. Biol. Chem. 274 (12), 7913-22 (1999)]. The cells were co-transfected with the reporter vector, the expression plasmid coding for the fusion protein Gal4 DBD/PPARαLBD and the control vector pCH110. The cells were exposed to increasing concentrations of the study compounds and CAT activity was evaluated. Untreated cells were used as controls.
Monkey kidney fibroblasts (COS-7) were cultured according to the usual cell culture techniques, at 37° C. in a 5% v/v carbon dioxide atmosphere using as the growth medium DMEM (Dulbecco's modified Eagle's medium) modified with 3.7 g/l of sodium bicarbonate, 4 mM L-glutamine, 4.5 g/l of glucose, 1 mM sodium pyruvate and 10% v/v of foetal bovine serum, in the presence of streptomycin 100 μg/ml and penicillin 100 U/ml final.
The cells were co-transfected using the transfection reagent FuGENE6 (Roche), consisting of a defined mixture of lipids capable of complexing the DNA and of transporting it into the cells. Twenty-four hours prior to transfection the cells were plated at a density of 1.2×10^5 cells/well in 12-well plates and maintained at 37° C. in a 5% v/v CO2 atmosphere. […] Briefly, the transfection mixture containing 0.8 μg of the expression vector, 1.6 μg of the reporter vector, 0.8 μg of the control vector and 9 μl of the FuGENE6 reagent per well was added directly to the cells in the presence of culture medium devoid of serum. After 5 hours, the transfection medium was replaced by 1 ml of culture medium complete with serum and antibiotics in the presence or absence of the molecules to be tested at 3 different concentrations (2, 20 and 100 μM). Wy-14,643 (2 μM), a known ligand of PPARα, was used as the positive reference compound.
After 48 hours' incubation at 37° C. in a 5% v/v CO2 atmosphere, the cells were washed twice with 1 ml of phosphate buffer (PBS) and removed mechanically from the wells in TEN buffer (Tris[hydroxymethyl]aminomethane 10 mM pH 8, ethylenediamine-tetraacetic acid 1 mM pH 8, sodium chloride 0.1 M). After centrifuging for 3 minutes at 1000 rpm, the cells were resuspended in 65 μl of lysis buffer (Tris-HCl 0.25 M, pH 8) and then lysed thanks to three rapid freeze-thaw cycles. The insoluble cellular materials (debris) were removed by centrifuging at 15,000 rpm for 15 minutes at 4° C., and the supernatant was recovered and used for the CAT and β-galactosidase activity assays. […]

[4] = Experiment I, after 12 days' treatment, feeding state, approx. 15 hours after last treatment
[5] = Experiment I, after 18 days' treatment, fasting 18 hours, 6 hours after last treatment
[6] = Experiment I, after 25 days' treatment
[7] = Experiment I, db/db mice, oral twice daily, after 12 days' treatment, feeding state, approx. 15 hours after last treatment
[8] = Experiment I, final body weight after 25 days' treatment
[9] = Experiment I, after 12 days' treatment, postabsorption, 8 hours after last treatment
[10] = Experiment I, after 18 days' treatment
[11] = Experiment I, after 18 days' treatment, fasting 18 hours, 5 hours after last treatment
[12] = Experiment I, after 25 days' treatment, postabsorption
[13] = Experiment I, after 12 days' treatment, postabsorption (fasting 9 a.m. to 5 p.m.), 8 hours after last treatment
[14] = Experiment II, after 11 days' treatment, fasting 18 hours, 5 hours after last treatment
[15] = Experiment II, after 12 days' treatment
[16] = Experiment II, after 12 days' treatment, postabsorption

With `CN(CCOc1ccc(CC2SC(=O)NC2=O)cc1)c1ccccn1` (stereo not drawn) [Rosiglitazone, rosiglitazone, reference compound] the “Variation % (final b.w.) vs control” value [1] was “+49%”, the “Variation % (initial b.w.) vs control” value [1] was “+3%” and the “Variation % (glucose) vs control” value [2, 4] was −25%. For the same molecule, the “Variation % (glucose) vs control” value [2, 5] was −35%, the “Variation % (HDL-cholesterol) vs control” value [2, 6] was −20% and the “Variation % (triglycerides) vs control” value [2, 6] was −54%. The Glucose [2, 5] was 225 ± 27▪ mg/dl, the Glucose [2, 7] was 365 ± 64 mg/dL and the Final b.w. [2, 8] was 42.1 ± 2.5Δ g. It also gave an Initial b.w. ([2]; Experiment I) of 32.6 ± 1.4 g.

`CC(C)OC(=O)C(C)(C)Oc1ccc(C(=O)c2ccc(Cl)cc2)cc1` [Fenofibrate, fenofibrate, reference compound] was tested, and the Final b.w. [1] was 34.5 ± 1.0 g, the Initial b.w. [1] was 33.3 ± 0.7 g and the “Variation % (final b.w.) vs control” value [1] was “+22%”. For the same molecule, the “Variation % (initial b.w.) vs control” value [1] was “+5%”, the “Variation % (glucose) vs control” value [2, 4] was −4% and the “Variation % (glucose) vs control” value [2, 9] was −1%. For the same molecule, the “Variation % (AUC glucose at OGTT) vs control” value [2, 10] was −12%, the “AUC glucose at OGTT” value [2, 11] was 45192 ± 1546 a.u and the “Variation % (glucose) vs control” value [2, 5] was “+12%”. For the same molecule, the “Variation % (HDL-cholesterol) vs control” value [2, 6] was “+18%”, the “Variation % (triglycerides) vs control” value [2, 6] was −30% and the “Glucose (plasma)” value [2, 6] was 553 ± 30 mg/dL. For the same molecule, the “Variation % (fructosamine) vs control” value [2, 12] was “+15%”, the “Variation % (plasma glucose) vs control” value [2, 12] was “+21%” and the “Fructosamine (plasma)” value [2, 12] was 0.92 ± 0.02Δ mM. For the same molecule, the “HDL-choles. (plasma)” value [2, 12] was 96.4 ± 4.2 mg/dL, the “Triglycerides (plasma)” value [2, 12] was 66.5 ± 3.5Δ mg/dl and the Glucose [2, 13] was 409 ± 11 mg/dL. It also gave a Glucose [2, 5] of 384 ± 20 mg/dL and a Glucose [2, 7] of 466 ± 8 mg/dL.

With `COC(=O)C(C)(C)Sc1cccc(OCCc2ccc(Cl)cc2)c1` [Example 1, methyl 2-[3-[2-(4-chlorophenyl)ethoxy]phenylthio]isobutyrate] the “Activation of reporter gene CAT as a percentage of the reference compound (WY-14,643 2 μM = 100%)” value ([3]; 2 μM) was 44.9%, the “Activation of reporter gene CAT as a percentage of the reference compound (WY-14,643 2 μM = 100%)” value ([3]; 20 μM) was 129.9% and the “Activation of reporter gene CAT as a percentage of the reference compound (WY-14,643 2 μM = 100%)” value ([3]; 100 μM) was 232.1%. For the same molecule, the “Variation % (glucose) vs control” value [2, 4] was −38%, the “Variation % (glucose) vs control” value [2, 9] was −48% and the “Variation % (AUC glucose at OGTT) vs control” value [2, 10] was −52%. The “AUC glucose at OGTT” value [2, 11] was 24527 ± 889 a.u, the “Variation % (glucose) vs control” value [2, 5] was −58% and the “Variation % (HDL-cholesterol) vs control” value [2, 6] was “+20%”. The “Variation % (final b.w.) vs control” value [2, 6] was “+27%”, the “Variation % (triglycerides) vs control” value [2, 6] was −53% and the “Glucose (plasma)” value [2, 6] was 206 ± 8Δ mg/dl. For the same molecule, the “Variation % (fructosamine) vs control” value [2, 12] was −49%, the “Variation % (plasma glucose) vs control” value [2, 12] was −55% and the “Fructosamine (plasma)” value [2, 12] was 0.41 ± 0.04 mM. For the same molecule, the “HDL-choles. (plasma)” value [2, 12] was 98.0 ± 3.5[…] mg/dl, the “Triglycerides (plasma)” value [2, 12] was 45.3 ± 2.3 mg/dL and the Glucose [2, 13] was 216 ± 16 mg/dL. For the same molecule, the Glucose [2, 5] was 144 ± 3Δ mg/dl, the Glucose [2, 7] was 303 ± 16 mg/dL and the Final b.w. [2, 8] was 35.9 ± 0.6 g. The “Variation % (initial b.w.) vs control” value ([2]; Experiment I) was “+2%”, the Initial b.w. ([2]; Experiment I) was 32.3 ± 0.3 g and the “Variation % (glucose) vs control” value ([2]; Experiment II, after 9 days' treatment, postabsorption, 8 hours after last treatment) was −36%. The “Variation % (AUC glucose at OGTT) vs control” value ([2]; Experiment II, after 11 days' treatment) was −40%, the “AUC glucose at OGTT” value [2, 14] was 25929 ± 1299 a.u and the “Variation % (glucose) vs control” value [2, 14] was −36%. For the same molecule, the “Variation % (HDL-cholesterol) vs control” value [2, 15] was “+43%”, the “Variation % (final b.w.) vs control” value [2, 15] was “+7%” and the “Variation % (triglycerides) vs control” value [2, 15] was −48%. For the same molecule, the “Glucose (plasma)” value [2, 15] was 356 ± 30 mg/dL, the “Variation % (plasma glucose) vs control” value [2, 16] was −38% and the “HDL-choles. (plasma)” value [2, 16] was 123.7 ± 1.9 mg/dL. For the same molecule, the “Triglycerides (plasma)” value [2, 16] was 45.1 ± 1.4 mg/dL, the Glucose ([2]; Experiment II, after 9 days' treatment, postabsorption (fasting 9 a.m. to 5 p.m.), 8 hours after last treatment) was 223 ± 20Δ mg/dl and the Glucose [2, 14] was 158 ± 7 mg/dL. The Final b.w. ([2]; Experiment II, final body weight after 12 days' treatment) was 40.3 ± 0.8[…] g, the “Variation % (initial b.w.) vs control” value ([2]; Experiment II) was −1% and the Initial b.w. ([2]; Experiment II) was 38.6 ± 0.4 g.

Reference: US7375124B2, “Use of α-phenylthiocarboxylic and α-phenyloxycarboxylic acids with serum-glucose-lowering and serum-lipid-lowering activity” (Sigma-Tau Industrie Farmaceutiche Riunite S.p.A., priority 2002, dated 2008)
